Where two headings read alike, the source gives them in different places.
What was measured:
[1] = system: cancer growth; set-up: method as in PMID 21187458, PMID 18520037, PMID 18813831; details: cited from earlier work
[2] = biological target: T1, recombinant human LAT1 (Homo sapiens, UniProt Q01650); test: Inhibition of LAT1 mediated [3H]-His transport in proteoliposomes reconstituted with recombinant purified human LAT1; type: biochemical; details: 100 µM concentration, n = 3, Table S6
T1 construct: made in house; host or cells: E. coli
T1 sequence (Q01650 whole entry): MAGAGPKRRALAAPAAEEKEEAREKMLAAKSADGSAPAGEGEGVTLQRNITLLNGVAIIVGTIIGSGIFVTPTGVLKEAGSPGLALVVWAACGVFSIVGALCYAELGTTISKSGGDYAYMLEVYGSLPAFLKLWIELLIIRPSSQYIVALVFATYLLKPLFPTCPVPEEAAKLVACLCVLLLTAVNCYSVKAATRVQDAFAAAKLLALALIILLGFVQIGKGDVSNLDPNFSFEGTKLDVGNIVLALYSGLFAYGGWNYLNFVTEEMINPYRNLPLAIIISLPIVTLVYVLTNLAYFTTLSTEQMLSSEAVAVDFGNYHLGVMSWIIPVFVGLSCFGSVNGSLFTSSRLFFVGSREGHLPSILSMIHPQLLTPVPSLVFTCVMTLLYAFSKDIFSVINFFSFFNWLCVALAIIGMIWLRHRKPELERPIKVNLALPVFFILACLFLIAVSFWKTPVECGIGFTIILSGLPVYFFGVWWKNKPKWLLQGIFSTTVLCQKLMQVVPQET
Protocol: All 30 compounds were evaluated for their potency to inhibit LAT1 mediated histidine transport in proteoliposomes reconstituted with recombinant purified human LAT1 (see Methods). […]
Human LAT1 was over-expressed in E. coli and was purified as previously described. In brief, solubilized cell lysate was centrifuged (12,000× g, 10 min, 4 °C); supernatant was applied on a His-Trap HP column (5 mL Ni Sepharose) connected to ÄKTA start system. The column was equilibrated with 10 mL buffer (20 mM Tris HCl pH 8.0, 10% glycerol, 200 mM NaCl, 0.1% sarkosyl) prior to supernatant application. The column was washed with 10 mL buffer (20 mM Tris HCl pH 8.0, 10% glycerol, 200 mM NaCl, 0.05% DDM, and 2 mM DTE) and the protein was eluted with the same buffer plus 400 mM imidazole. Purified protein was desalted, in order to remove imidazole, using a PD-10 column in a buffer containing 20 mM Tris HCl pH 8.0, 10% glycerol, 0.05% DDM and 10 mM DTE.
The purified human LAT1 was reconstituted by detergent removal approach using the batch-wise method, as previously described. In brief, the initial mixture contained: 4 μg of purified protein, 100 μL of 10% C12E8, 100 μL of 10% egg yolk phospholipids (w/v) in the form of liposomes that were prepared as previously described, 20 mM Tris HCl pH 7.5, and 10 mM L-His in a final volume of 700 μL. This mixture was incubated with 0.5 g of Amberlite XAD-4 for 90 min at 23 °C, 1200 rpm to retain detergent.
To perform transport assays, the external substrate was removed by gel filtration chromatography: 600 μL of proteoliposomes were passed through a Sephadex G-75 column (0.7 cm diameter × 15 cm height) pre-equilibrated with 20 mM Tris HCl pH 7.5 and a concentration of sucrose to balance internal osmolarity. Transport was started adding 5 μM [^3H]-His to proteoliposomes and stopped after 30 min according to the stop inhibitor method, as previously described. In brief, in controls 1.5 µM HgCl2 was added at time zero and radioactivity was subtracted to samples for calculating net transport. After stopping the transport reaction, 100 μL of proteoliposomes was subjected to gel filtration chromatography using a Sephadex G-75 column (0.6 cm diameter × 8 cm height), to separate the external from the internal radioactivity. Proteoliposomes were eluted with 1 mL 50 mM NaCl in 4 mL scintillation mixture and counted. […] Protein concentration was estimated by Chemidoc imaging system1 [104] to calculate the human LAT1 specific activity.

[3] = biological target: T1, recombinant human LAT1; details: same test system, determined previously; cited from earlier work
[4] = system: LAT1; details: S2 cells; cited from earlier work
[5] = system: LAT1; details: human colon cancer (HT-29) cells; cited from earlier work

SMILES	concentration required to attain antiproliferative effects [1]	% Residual Activity [2]	IC50 [3]	IC50 [4]	IC50 [5]
NC1(C(=O)O)CC2CCC1C2 (centres unmarked) [Compound 1, 2-Amino-2-norbornanecarboxylic acid]	> 10 mM	6.1%	6800 ± 270 nM		
Nc1cc(COc2c(Cl)cc(C[C@H](N)C(=O)O)cc2Cl)c2oc(-c3ccccc3)nc2c1 [Compound 2]				140 nM	60 nM
